Two compounds from patent US20180105793A1, “DEVICE WITH MULTIPLE MICROENVIRONMENTS AND METHODS THEREOF” (WASHINGTON UNIVERSITY, priority 2016, published 2018) can be followed below.

“Also recorded” adds a separate entry of the source.

In assay [1] the test system is MCF10A cells. Description: Collective cell migration assay on modular polyacrylamide (mPA) dual-stiffness substrate. The format is cell-based, Human. The method, then:
Human mammary epithelial non-tumorigenic MCF10A cells were cultured in DMEM-F12 (GE Healthcare Life Sciences), supplemented with 5% horse serum (Invitrogen), 20 ng/mL epidermal growth factor (EGF, Miltenyi Biotec Inc), […] hydrocortisone (Sigma-Aldrich), 100 ng/mL cholera toxin (Sigma-Aldrich), 10 μg/mL insulin (Sigma-Aldrich), and 1% (v/v) penicillin-streptomycin (Sigma-Aldrich). Tumorigenic mammary epithelial MCF7 cells were grown in DMEM (Sigma-Aldrich) containing 10% fetal bovine serum (FBS), 1% (v/v) penicillin-streptomycin (Sigma-Aldrich), and 1% non-essential amino acids (0.1 mM). Human epidermoid carcinoma A431 cells were grown in DMEM (Sigma-Aldrich) containing 10% fetal bovine serum (FBS), 1% (v/v) penicillin-streptomycin (Sigma-Aldrich), 1% sodium pyruvate (Sigma-Aldrich), 1% sodium bicarbonate (Sigma-Aldrich), and 1% non-essential amino acids (0.1 mM). A PDMS stencil was designed and fabricated with a rectangular opening in the center, restricting the culture of epithelial monolayer within the central module (primary ECM) of mPA substrate (see e.g., FIG. 13A). PDMS stencils were air-dried, cleaned with 70% ethanol, and sterilized under UV light for 2 h. Afterwards, stencils were passivated overnight, with a sterile solution of 1% Pluronic and 1% Bovine serum albumin (BSA) in Phosphate buffered saline (PBS) to avoid cell adhesion, and carefully positioned on the PA gels. Cell suspension with 2×10^4 cells was dispensed into the PDMS reservoir covering the primary ECM region and left to grow for a prescribed duration of priming (1, 2, or 3 days) at 37° C. in a 5% CO2 humidified incubator. After this incubation period, the PDMS stencil was lifted off to allow cell sheet to migrate into the adjoining secondary ECM. Additional media was added to each well. For proliferation inhibition experiments, cells were treated with 2 mM thymidine (Sigma-Aldrich) after at least 6 h of cell seeding, to allow adequate attachment of cells to the substrate. For calcium chelation experiments, cells were incubated with 4 mM of EGTA (Sigma-Aldrich) after 3-day priming. […] Subsequently, coordinates of the leading edge were imported into a custom-made program in MATLAB and its advancement was calculated by averaging the distance of each point on the leading edge from the primary-secondary ECM interface. […] Cell migration tracks were subsequently analyzed to obtain migration speed and velocity angle distribution. Migration speed was calculated as a ratio between the sum of distances traveled by the cell between each time point and the total time. For each time interval, the angle between instantaneous velocity vector and the x axis was calculated and plotted the angle distribution for the entire migration tracking period.

Assay [2] concerns MCF10A cells. Description: Immunofluorescent staining for E-cadherin (cell-cell junctions). As to conditions: 4 mM EGTA vs untreated. The class given is cell-based, Human.

With `O=C(O)CN(CCOCCOCCN(CC(=O)O)CC(=O)O)CC(=O)O` [EGTA], in the assay with MCF10A cells [1] (MCF10A monolayer, 4 mM EGTA after 3-day priming), the “memory-dependent migration of the leading edge” value was “preserved”. In addition, the “cell-cell communication / cell-cell junctions (E-cadherin images)” value with MCF10A cells [2] was “disrupts cell-cell communication; also recorded: dysfunctional cell-cell junctions”.

Regarding `Cc1cn([C@H]2C[C@H](O)[C@@H](CO)O2)c(=O)[nH]c1=O` [thymidine], in the assay with MCF10A cells [1] (MCF10A monolayer, 2 mM thymidine (proliferation inhibition)), the “trend of mechanical memory-dependent migration” value is recorded as “held true”. The “cell migration speeds (leading edge)” value in the assay with MCF10A cells [1] (MCF10A monolayer, 2 mM thymidine (proliferation inhibition), secondary ECM after priming, vs untreated cells) was “increased”. Also, the “cell spreading (spreading area of individual cells in the secondary ECM)” value in the assay on MCF10A cells [1] (MCF10A, 2 mM thymidine, with vs without proliferation inhibition) was “increased spreading”.
